Measured values as given in patent US8679461B2, “Use of hesperetin for enhancing the sweet taste” (Symrise AG, priority 2005, dated 2014).
Several values for one entry are separate records, joined by “and”; a condition that tells them apart may be missing. Identical values can stand only once.

Experiments:
[1] = tested on: sweet impression of a 5% by weight sucrose-containing solution; experiment: Enhancing the sweet impression of a sugar solution, rating by a group of experts (Application Example 1); type: in vivo; conditions: for total number of tasters against the number of tasters who found the test solution sweeter / % Enhancement of the sweet impression: 5% sucrose + 100 ppm substance against 5% sucrose solution; for % Enhancement of the sweet impression: calculated from mean ratings; for Sweet impression (1-10) b) with: 5% sucrose + 100 ppm substance, rating 0 [not sweet] to 10 [extremely sweet], mean ± standard deviation
Method: In order to quantify the enhancement of a sweet impression owing to the addition of hesperetin, the respective sweetness of a 5% by weight sucrose-containing solution and of samples which contained 5% sucrose and 100 ppm hesperetin (source: Sigma-Aldrich, Order.-No. H 4125, CA-No. 41001-90-5) or a quantity of comparative hydroxyflavanones naringenin, eriodictyol, homoeriodictyol or eriodictyol-7-methylether (cf. US 2002 188,019) was determined by a group of experts (rating0 [not sweet] to 10 [extremely sweet]). Evaluation took place as a calculation of the enhancement (in %) of the sweet impression from the mean values of the assessments of the sucrose solution or the sucrose and compound 2-containing solution.

[2] = tested on: sweet impression of sucrose-containing solutions; experiment: Sweet impression of a sugar-reduced test solution, rating by a group of experts (Application Example 2); type: in vivo
Method: In order to quantify the retention of a sweet impression when replacing a sucrose content with a small quantity of hesperetin, the respective sweetness of (a) a 6% by weight sucrose-containing solution against a 5% by weight sucrose-containing solution and (b) a 6% by weight sucrose-containing solution against a solution which contained 5% sucrose and a quantity of hesperetin (source: Sigma-Aldrich, Order No. H 4125, CA-No. 41001-90-5) was determined by a group of experts (rating 0 [not sweet] to 10 [extremely sweet]). Evaluation took place as a calculation of the enhancement (in %) of the sweet impression from the mean values of the assessments of the 6% or 5% sucrose-containing solution or 5% sucrose and 100 ppm hesperetin-containing solution.

sweet taste = conditions: concentration of 200 ppm; cited from earlier work

SMILES	total number of tasters against the number of tasters who found the test solution sweeter [1]	% Enhancement of the sweet impression [1]	Sweet impression (1-10) b) with [1]	also measured
COc1cc(O)c2c(c1)OC(c1ccc(O)c(O)c1)CC2=O (stereo not drawn) [Eriodictyol-7-methylether]	18/13	+15.9%	5.7 ± 1.9	
O=C1C[C@@H](c2ccc(O)c(O)c2)Oc2cc(O)cc(O)c21 [Eriodictyol]	12/2	−16.7%	5.4 ± 1.2	
COc1ccc(C2CC(=O)c3c(O)cc(O)cc3O2)cc1O (stereo not drawn) [Hesperetin, 4′-methoxy-3′,5,7-trihydroxyflavanone]	16/14	+41%	7.1 ± 2.4	sweet-enhancing effect (in words) ([1]; in contrast to naringenin, homoeriodictyol, eriodictyol and eriodictyol-7-methylether, cf. Example 1): clear and significant sweet-enhancing effect; total number of tasters against the number of tasters who found the test solution sweeter ([2]; test (b): 5% sucrose + 100 ppm hesperetin against 6% sucrose): 15/12; % Enhancement of the sweet impression ([2]; test (b): 5% sucrose + 100 ppm hesperetin against 6% sucrose solution): +21%; Sweet impression (1-10) 5% sucrose + 100 ppm hesperetin ([2]; test (b), mean ± standard deviation): 7.9 ± 1.5; inherent taste (in words) (sweet taste): very weak sweet taste
COc1cc([C@@H]2CC(=O)c3c(O)cc(O)cc3O2)ccc1O [Homoeriodictyol]	19/13	+6.4%	6.1 ± 1.5	
O=C1C[C@@H](c2ccc(O)cc2)Oc2cc(O)cc(O)c21 [Naringenin]	19/12	+7.5%	6.0 ± 1.7	
OC[C@H]1O[C@@](CO)(O[C@H]2O[C@H](CO)[C@@H](O)[C@H](O)[C@H]2O)[C@@H](O)[C@@H]1O [sucrose]				Sweet impression (1-10) 5% sucrose ([2]; 5% by weight sucrose solution, test (a), mean ± standard deviation): 5.0 ± 1.6; Sweet impression (1-10) 6% sucrose ([2]; 6% by weight sucrose solution, reference in tests (a) and (b), mean ± standard deviation): 6.5 ± 1.5 and 6.9 ± 1.6; total number of tasters against the number of tasters who found the test solution sweeter ([2]; test (a): 5% sucrose against 6% sucrose): 15/0; % Enhancement of the sweet impression ([2]; test (a): 5% sucrose solution against 6% sucrose solution): −30%
